According to US20170112741A1, “AGENT FOR AMELIORATING SKIN SYMPTOM, HAIR GROWTH AGENT OR SLIMMING AGENT” (GOLDCREST MEDICINE INSTITUTE CO., LTD., priority 2014, published 2017):

Experiments:
[1] = Slimming effect of cabergoline 0.25 mg/week in patient A; format: in vivo, human
Procedure: Due to an illness, patient A had to undergo the cabergoline treatment from the end of June of year 2013, and for this reason, attempted to lose weight again. Since it was expected that the body weight would be gained back, the target value was set at 56.5 kg, and a long-term plan without any exercise or restricted diet was adopted. However, regular meals were taken and only the overeating was strictly avoided.
Meanwhile, since cabergoline was administered at 0.25 mg/week for 3 months of the measurement period, the total dose of cabergoline was calculated to be 3 mg. […] In this regard, it is considered that no side effect would appear with administration of such a small amount.

seborrheic keratosis = assay: Treatment of seborrheic keratosis generated from senile plaque by oral cabergoline; format: in vivo, human; conditions: patient A
Excerpt: Investigation was made for the treatment of seborrheic keratosis generated from senile plaque. On the back side of the wrist of the right hand of patient A, there was seborrheic keratosis with width of 15 mm×length of 10 mm, which had remained as a problem for 13 years. In summer, elevation of the skin of about 4 mm with blackish brown color occurred.
Furthermore, 2 years ago, seborrheic keratosis with width of 13 mm×length of 9 mm was caused from senile plaque on the back of the right hand, and elevation of the skin of about 2 mm with dark brown color was recognized. […] Thus, it is recognized that the seborrheic keratosis with a short clinical history is more responsive to the treatment.

[2] = patient A, 0.25 mg/week, November 14
[3] = patient A, 0.25 mg/week, November 28
[4] = patient A, 0.25 mg/week, October 3
[5] = patient A, 0.25 mg/week, October 17
[6] = patient A, 0.25 mg/week, October 31
[7] = patient A, 0.25 mg/week, Sep. 5, 2013 (start of measurement period)
[8] = patient A, 0.25 mg/week, September 19

C=CCN1C[C@H](C(=O)N(CCCN(C)C)C(=O)NCC)C[C@@H]2c3cccc4[nH]cc(c34)C[C@H]21 [cabergoline]
Hungry feeling ([1]; patient A during weight loss under cabergoline): no hungry feeling | Waist size ([1]; patient A under cabergoline, reduced from 91 cm at a maximum): 83 cm | Body weight course ([1]; patient A under cabergoline, target value 56.5 kg, no exercise or restricted diet): steadily reduced to the target value | Obesity BMI ([1]; patient A, 0.25 mg/week, December 12): 24.0 | Body weight ([1]; patient A, 0.25 mg/week, December 12 (15 weeks)): 56.1 kg | Weight loss ([1]; patient A, 0.25 mg/week, December 12, since previous measurement): 0.7 kg | Total weight loss (%) ([1]; patient A, 0.25 mg/week, December 12, vs Sep. 5, 2013): −10.0% | Body weight [1, 2]: 57.5 kg | Obesity BMI [1, 2]: 24.6 | Weight loss ([1]; patient A, 0.25 mg/week, November 14, since previous measurement): 0.8 kg | Total weight loss (%) ([1]; patient A, 0.25 mg/week, November 14, vs Sep. 5, 2013): −7.7% | Body weight [1, 3]: 56.8 kg | Obesity BMI [1, 3]: 24.3 | Weight loss ([1]; patient A, 0.25 mg/week, November 28, since previous measurement): 0.7 kg | Total weight loss (%) ([1]; patient A, 0.25 mg/week, November 28, vs Sep. 5, 2013): −8.9% | Body weight [1, 4]: 60.1 kg | Obesity BMI [1, 4]: 25.7 | Weight loss ([1]; patient A, 0.25 mg/week, October 3, since previous measurement): 1.2 kg | Total weight loss (%) ([1]; patient A, 0.25 mg/week, October 3, vs Sep. 5, 2013): −3.5% | Body weight [1, 5]: 59.1 kg | Obesity BMI [1, 5]: 25.2 | Weight loss ([1]; patient A, 0.25 mg/week, October 17, since previous measurement): 1.0 kg | Total weight loss (%) ([1]; patient A, 0.25 mg/week, October 17, vs Sep. 5, 2013): −5.1% | Body weight [1, 6]: 58.3 kg | Obesity BMI [1, 6]: 24.9 | Weight loss ([1]; patient A, 0.25 mg/week, October 31, since previous measurement): 0.8 kg | Total weight loss (%) ([1]; patient A, 0.25 mg/week, October 31, vs Sep. 5, 2013): −6.4% | Body weight [1, 7]: 62.3 kg | Obesity BMI [1, 7]: 26.6 | Body weight [1, 8]: 61.3 kg | Obesity BMI [1, 8]: 26.2 | Weight loss ([1]; patient A, 0.25 mg/week, September 19, since previous measurement): 1.0 kg | Total weight loss (%) ([1]; patient A, 0.25 mg/week, September 19, vs Sep. 5, 2013): −1.6% | Time after which BMI was decreased to a normal level ([1]; patient A, oral administration, normal BMI 21.5 to 24.9): 8 weeks | Body weight ([1]; patient A, Mar. 14, 2015): 54.2 kg | Obesity BMI ([1]; patient A, Mar. 14, 2015): 23.2 | Weight loss ([1]; patient A, Mar. 14, 2015, since previous measurement): 1.9 kg | Total weight loss (%) ([1]; patient A, Mar. 14, 2015, vs Sep. 5, 2013): −13.0% | Color of seborrheic keratosis on back side of right wrist (seborrheic keratosis; 13 years history, oral cabergoline over the last year): faded from blackish brown to brown | Color of seborrheic keratosis on the back of the right hand (seborrheic keratosis; as of March 22, initially dark brown): faded to pale yellow brown | Elevation of the skin, seborrheic keratosis on back side of right wrist (seborrheic keratosis; lesion width 15 mm×length 10 mm, 13 years history, elevation about 4 mm, oral cabergoline over the last year): became flattened
